Measurements published in the CheMixHub viscosity set.

Test: xn = mol fraction of the nth substance listed

CC(=O)OCC(COC(C)=O)OC(C)=O + CCCCO
viscosity [mPa·s], 101.33 kPa
Conditions	x1 = 0.1	x1 = 0.2	x1 = 0.3	x1 = 0.4	x1 = 0.5	x1 = 0.6	x1 = 0.7	x1 = 0.8	x1 = 0.9
298 K	2.4	2.7	3.12	3.71	4.5	5.57	6.99	9.02	11.93
303 K	2.11	2.34	2.69	3.17	3.82	4.65	5.79	7.34	9.49
308 K	1.87	2.06	2.36	2.75	3.27	3.96	4.86	6.07	7.72
313 K	1.67	1.83	2.07	2.4	2.84	3.41	4.15	5.1	6.39

C1COCCO1 + c1ccccc1
303.15 K, 101 kPa
Conditions	viscosity [mPa·s]
x1 = 0.1009	0.603
x1 = 0.104	0.599
x1 = 0.207	0.644
x1 = 0.3017	0.687
x1 = 0.309	0.686
x1 = 0.4005	0.736
x1 = 0.411	0.733
x1 = 0.4969	0.787
x1 = 0.511	0.779
x1 = 0.6	0.841
x1 = 0.61	0.828
x1 = 0.7019	0.895
x1 = 0.709	0.882
x1 = 0.8015	0.961
x1 = 0.807	0.937
x1 = 0.904	0.991
